The numbers were not newly measured in patent publication US20230041069A1, “ELECTROLYTE FOR ELECTROCHEMICAL GAS SENSOR AND ELECTROCHEMICAL GAS SENSOR INCLUDING THE SAME” (Samsung Electronics Co., Ltd., priority 2021, published 2023), which cites them from elsewhere.

Consider `CCn1cc[n+](C)c1.N#C[N-]C#N` [compound 6, 1-Ethyl-3-methylimidazolium dicyanamide], for which the “pKa of an anion's conjugate acid” value is given as 5.
